Results reported in patent US20090286869A1, “Flavanols and B-Type Procyanidins and Inflammation” (Mars, Inc., priority 2005, published 2009).
“Also recorded” adds a separate entry of the source.

Key:
COX-2 mRNA [1] = assay: RT-PCR of COX-2 mRNA in LPS and fMLP-treated U937-derived macrophages; format: cell-based, human; settings: 10 μM each; for inhibition of the mRNA expression of COX-2: 2 h pretreatment before LPS 1 μg/ml priming or fMLP 10 μM stimulation, FIGS. 4 A-C; for order of suppression potency of the COX-2 mRNA expression induced by LPS and fMLP: FIG. 4C
Procedure: The human monocyte line U937 was obtained from the cell bank in Shanghai Institute of Biological Sciences, Chinese Academy of Sciences. Monocytic cells of 3-4 passages were grown to confluence in RPMI 1640 (GIBCO-BRL, Glasgow, Scotland) containing 10% fetal bovine serum at 37° C. in a 5% CO2 humidified incubator during all experimental procedures. Macrophages were pretreated with procyanidins B1 dimer, B2 dimer, A1 dimer, and flavanols (−)-catechin and (+)-epicatechin (each 10) for 2 h before LPS (1 μg·ml^−1) priming or fMLP (10 μM) stimulation for 2 h. The normal macrophages without LPS or fMLP treatment were considered as controls. They were then differentiated to macrophages in the medium containing 100 nM PMA and allowed to adhere for 48 h, after which they were fed with PMA-free medium and cultured for 24 h prior to use. Cells from different groups were collected and total RNA was prepared with TRI-REAGENT-LS extraction kit The expression of RNAs was determined by RT-PCR. Complementary DNA was created from RNA using TrueScript MMLV reverse transcriptase and oligo d (T) 18 primers. 5 μg RNA was included in each reaction.
The data are presented as means±SD and compared with ANOVA and least significant difference test using SPSS statistical program. The level of the statistical significance was set at P<0.05.

[2] = target: T1, recombinant human COX-2 enzyme (Homo sapiens, UniProt P35354); assay: Determination of COX-2 enzyme activity (PGE2 RIA, baculovirus-expressed enzyme in sf9 cells); format: biochemical; settings: baculovirus-expressed human recombinant COX-2; 10 μmol/L arachidonic acid; FIG. 3
T1 construct: made in house; host or cells: sf9 insect cells infected with hCOX-2 recombinant baculovirus
T1 sequence (P35354 18-604): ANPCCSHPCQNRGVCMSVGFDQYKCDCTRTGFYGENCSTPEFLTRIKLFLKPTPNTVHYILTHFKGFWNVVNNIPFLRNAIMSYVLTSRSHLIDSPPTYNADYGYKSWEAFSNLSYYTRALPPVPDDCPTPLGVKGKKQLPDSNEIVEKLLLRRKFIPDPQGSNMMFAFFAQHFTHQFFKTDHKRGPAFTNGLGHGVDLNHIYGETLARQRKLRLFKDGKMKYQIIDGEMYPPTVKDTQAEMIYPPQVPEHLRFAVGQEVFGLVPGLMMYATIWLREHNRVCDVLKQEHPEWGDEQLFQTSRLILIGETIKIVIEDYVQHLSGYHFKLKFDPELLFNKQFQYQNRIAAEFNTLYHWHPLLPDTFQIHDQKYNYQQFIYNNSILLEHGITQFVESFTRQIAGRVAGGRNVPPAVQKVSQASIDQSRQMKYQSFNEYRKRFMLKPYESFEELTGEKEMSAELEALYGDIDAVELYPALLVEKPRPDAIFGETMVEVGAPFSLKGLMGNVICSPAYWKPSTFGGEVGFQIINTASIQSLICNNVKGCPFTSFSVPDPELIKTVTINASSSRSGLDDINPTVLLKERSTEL
Procedure: The effect of procyanidin dimer B2 and NS398, a selective COX-2 inhibitor (positive control), on the activity of COX-2 was measured using baculovirus-expressed recombinant human COX-2 enzyme as previously described (Zhang et al., Acta. Pharmacol. Sin. 25(8):1000-1006, 2004). Briefly, 24 h after infecting sf9 cells with hCOX-2 recombinant baculovirus, the cells were collected and washed in HHBS. The assays were performed as follows. One milliliter of Hank's solution containing 1×10^5 COX-2 expressing cells plus 9×10^5 uninfected sf9 cells was dispensed per well of 24-well polypropylene plates. B2, NS398, or DMSO vehicle (10 μL) was added to the appropriate well containing the cell suspension. Following a 15-min drug or DMSO preincubation at 37° C., the cells were challenged with 10 μmol/L arachidonic acid
(Sigma) in ethanol and incubated for 10 min. Reactions were terminated by the addition of 100 μL of 1 mol/L HCl, neutralized with 100 μL of 1 mol/L NaOH. The cells were pelleted for 10 min at 300×g and the levels of PGE2 in the supernatant were determined by a PGE2-specific RIA (Beijing East Asia Institute of Immunology). The concentration of PGE2 was then determined by interpolation from a standard curve and inhibition calculated by comparison of the PGE2 production by drug-treated cells (B2 and NS398) with that of DMSO-treated cells.

COX-2 protein expression = assay: Western blot of LPS-induced COX-2 protein expression in THP-1 cells; format: cell-based, human; settings: 50 μM, 30 min pretreatment with B2 followed by 4 hour LPS treatment
Procedure: (§1) Human monocytic THP-1 cells from acute monocytic leukemia (American Type Culture Collection, Manassas, Va.) in RPMI 1640 medium (Life Technologies, Rockville, Md.), with 4.5 g/L glucose, 10 nM HEPES, 1 mM sodium pyruvate, and 50 μM 2-ME supplemented with 10% FBS, were cultured under a humidified 5% CO2 atmosphere at 37° C. For differentiation, THP-1 cells were plated at 1×10^6 cells/ml in the medium containing 100 nM PMA and allowed to adhere for 48 h, after which they were fed with PMA-free medium and cultured for 24 h prior to use. LPS was used at concentration of 1 μg/ml in the medium. sf9 cells were cultured in monolayer at 28° C. in Grace's supplemented medium with 10% heat-inactivated fetal bovine serum.
5×10^6 cells were resuspended in modified RIPA lysis buffer (Tris-HCl 50 mM, pH 7.4 NaCl 150 mM, EDTA 1 mM, Na-deoxycholate 0.25%, NP-40 1%, PMSF 1 mM, Na3VO4 1 mM, NaF 1 mM, Aprotinin 10 μg/ml, leupeptin 5 μg/ml, pepstatin 5 μg/ml), and lysed cells on ice for 45 min. The lysate was centrifuged at 14,000×g for 15 min to sediment the particulate materials. The protein concentration of the supernatant was measured by the method of Lowry (Lowry et al., J. Biol. Chem. 193:265-267, 1951). Samples were electrophoresed in SDS/PAGE gels and separated proteins were transferred onto a PVDF membrane. […]

COX-2 mRNA [3] = assay: Real-time quantitative RT-PCR of COX-2 mRNA in LPS-treated differentiated THP-1 cells; format: cell-based, human; settings: differentiated THP-1 cells exposed to dimer B2 and LPS 1 μg/ml for 4 h; FIG. 1
Procedure: as §1
Total RNA was extracted from macropahges with TRIzol reagent (Invitrogen Corporation, Carlsbad, Calif.). Real-time quantitative RT-PCR was performed using the Opticon 2 (MJ Research Inc., Waltham, Mass.). Sequence specific PCR primers for COX-2 [accession no. NM_000963; forward primer: 5′-[…]-3′ [SEQ ID NO: 1]; reverse primer: 5′-[…]-3′ [SEQ ID NO: 2]] and GAPDH [accession no. NM_002046; forward primer: 5′-[…]-3′ [SEQ ID NO: 3]; reverse primer: 5′-[…]-3′ [SEQ ID NO: 4]] were designed using the Primer Premier software version 5.00. Standard curves were run on the same plate and the relative standard curve method was used to calculate the relative gene expression. […]

| Molecule | inhibition of the mRNA expression of COX-2 (COX-2 mRNA [1]) | order of suppression potency of the COX-2 mRNA expression induced by LPS and fMLP (COX-2 mRNA [1]) | effect on PGE2 synthesis (COX-2 enzyme activity) [2] | LPS-induced COX-2 protein expression (COX-2 protein expression; FIG. 2) | LPS-induced COX-2 protein expression (COX-2 protein expression; FIG. 2, listed as 132) | levels of mRNA for COX-2 (COX-2 transcription) (COX-2 mRNA [3]) |
| --- | --- | --- | --- | --- | --- | --- |
| Oc1cc(O)c2c(c1)O[C@@H](c1ccc(O)c(O)c1)[C@@H](O)C2 [(+)-epicatechin] | significant inhibition | (−)-catechin, (+)-epicatechin >B1, B2>A1 |  |  |  |  |
| Oc1cc(O)c2c(c1)OC1(c3ccc(O)c(O)c3)Oc3cc(O)c4c(c3C2C1O)OC(c1ccc(O)c(O)c1)C(O)C4 (centres unmarked) [A1, reference compound] | significant inhibition | (−)-catechin, (+)-epicatechin >B1, B2>A1 |  |  |  |  |
| Oc1cc(O)c2c(c1)O[C@H](c1ccc(O)c(O)c1)[C@H](O)[C@H]2c1c(O)cc(O)c2c1O[C@H](c1ccc(O)c(O)c1)[C@@H](O)C2 [B1, (−)-epicatechin-(4β-8)-(+)-catechin] | significant inhibition | (−)-catechin, (+)-epicatechin >B1, B2>A1 |  |  |  |  |
| Oc1cc(O)c2c(c1)O[C@H](c1ccc(O)c(O)c1)[C@H](O)[C@H]2c1c(O)cc(O)c2c1O[C@H](c1ccc(O)c(O)c1)[C@H](O)C2 [B2, (−)-epicatechin-(4β-8)-(−)-epicatechin] | significant inhibition | (−)-catechin, (+)-epicatechin >B1, B2>A1 | not inhibited; also recorded: no inhibitory effect | inhibited | inhibitory effect | inhibitory effect; also recorded: reduced in a concentration-dependent manner |
| (−)-catechin | significant inhibition | (−)-catechin, (+)-epicatechin >B1, B2>A1 |  |  |  |  |
